Reference: PubChem BioAssay AID1996
Converted amounts (≈) assume the structure as drawn.

conditions: buffer; pH 7.4; 200.0 µM

Row | solubility kinetic [µg/mL] | SMILES
1 | 34.3 (≈ 106 µM) | CC(=O)N(c1ccccc1C)S(=O)(=O)c1ccc(Cl)cc1
2 | 1.1 (≈ 3.79 µM) | Cc1cc(C(=O)NC2CCCCCCC2)ccc1[N+](=O)[O-]
3 | > 52.8 | CN(Cc1ccccc1)C(=O)COC(=O)c1ccc(Br)o1
4 | < 0.3 | Cc1cccc(NC(=O)CCCCC(=O)Nc2cccc(C)c2)c1
5 | > 45.5 | Cc1c(Cl)cnc(NC(=O)COC(=O)C2CC2)c1Cl
6 | > 54.1 | COc1ccccc1NS(=O)(=O)c1cccc(C(=O)N2CCCC2)c1
7 | 7 (≈ 17.6 µM) | CC(=O)Nc1ccc(C(=O)OCC(=O)Nc2ccc(N3CCOCC3)cc2)cc1
8 | 34.8 (≈ 99.9 µM) | CC(C)n1c(CN2CCN(Cc3ccccc3)CC2)nc2ccccc21
9 | > 35.8 | O=C(O)c1ccc2c(=O)[nH]c(CCl)nc2c1
10 | < 0.7 | CCC(C)(C)c1ccc(OC(=O)c2cccnc2Cl)cc1
11 | 3.4 (≈ 9.62 µM) | O=C(O)CCCCCNC(=O)OCC1c2ccccc2-c2ccccc21
12 | 30.6 (≈ 118 µM) | COC(=O)Cn1cc(/C=C/[N+](=O)[O-])c2ccccc21
13 | 40.1 (≈ 138 µM) | Cc1ccc(C)c(NC(=O)C(CC(=O)O)C2CCCO2)c1 (configuration not stated)
14 | 46 (≈ 147 µM) | O=C(c1ccoc1)N1CCC(CO)(CCc2ccccc2)CC1
15 | 42.1 (≈ 141 µM) | C/C=C/c1ccc(OCC(=O)Nc2ccncc2)c(OC)c1
16 | 46.7 (≈ 149 µM) | C(=Nc1cccc2c(N=Cc3ccco3)cccc12)c1ccco1
17 | 35.1 (≈ 132 µM) | Cc1ccc2nc(-c3ccc4c(c3)OCCO4)cn2c1
18 | > 44.3 | Cc1nc2ccccc2c(=O)n1Cc1ccc([N+](=O)[O-])cc1
19 | 23.4 (≈ 123 µM) | Cc1cccnc1NC(=O)C1CCC1
20 | > 32.9 | Nc1ccc(C(=O)Nc2nccs2)cc1
21 | > 53.5 | CCCn1c(N)c(C(=O)CN2CCc3ccccc3C2)c(=O)n(C)c1=O
22 | 72.8 (≈ 144 µM) | CCOC(=O)c1ccc(S(=O)(=O)Nc2cc(S(=O)(=O)Nc3ccc(OC)cc3)ccc2O)cc1

Row | solubility kinetic [µg/mL] | SMILES
23 | > 53.8 | CN(C(=O)C1CCCCN1S(=O)(=O)c1ccccc1)c1ccccc1 (configuration not stated)
24 | > 49.3 | CCOC(=O)CCN1C(=O)c2ccccc2Sc2ncccc21
25 | 1.3 (≈ 4 µM) | COc1ccc(C(=O)CN2C(=O)c3ccccc3C2=O)c(OC)c1
26 | > 40.5 | CSc1ccc(CNCc2ccco2)cc1.Cl
27 | 14.9 (≈ 46.9 µM) | Cc1ccnc(NC(=O)CCNC(=O)c2ccc(Cl)cc2)c1
28 | > 46.2 | O=C(CCC(=O)c1cccs1)NCc1cccc(Cl)c1
29 | 10.9 (≈ 40.2 µM) | Cc1ccc(CC(=O)OCC(=O)c2ccc[nH]2)cc1C
30 | 56.9 (≈ 148 µM) | CC(C)Sc1nc(SCC(=O)O)c2c3c(sc2n1)COC(C)(C)C3
31 | > 47 | CC(=O)c1ccc(-c2ccc(C(=O)NCC3CCCO3)o2)cc1 (configuration not stated)
32 | 8.7 (≈ 22.5 µM) | COc1ccc(C(=O)Nc2cccc(S(=O)(=O)NCc3ccco3)c2)cc1
33 | 35.2 (≈ 122 µM) | Cc1cccc(NC(=S)NCc2ccc(F)cc2)c1C
34 | > 44 | Cc1cccc(NS(=O)(=O)c2cccc([N+](=O)[O-])c2)n1
35 | 16.1 (≈ 50.7 µM) | COC(=O)c1ccccc1NC(=O)Nc1cc(C(C)(C)C)on1
36 | 30.5 (≈ 93.2 µM) | CCN(CC)c1nc2c(c(=O)[nH]c(=O)n2C)n1Cc1ccccc1
37 | > 61 | Cc1cc(NC(=O)CSCC(=O)OCc2nnc(-c3ccc(F)cc3)o2)no1
38 | 14 (≈ 47.6 µM) | COCCNC(=S)NC(=O)c1ccc(C(C)(C)C)cc1
39 | 0.9 (≈ 2.93 µM) | Cc1ccc(-c2nc(C#N)c(NCCCn3ccnc3)o2)cc1
40 | 24.2 (≈ 114 µM) | Cc1cc2nc3c(nc2cc1C)CCCC3
41 | 2 (≈ 6.7 µM) | COc1ccc(CNC(=O)c2cc(C(=O)C3CC3)c[nH]2)cc1
42 | 0.9 (≈ 2.38 µM) | CC(=O)c1cccc(NC(=O)CSc2nc(C3CC3)nc3ccccc23)c1
43 | 4.3 (≈ 10.5 µM) | COc1ccc(S(=O)(=O)N2CCCCC2)cc1NS(=O)(=O)c1ccccc1
44 | 26.9 (≈ 78.5 µM) | O=C(Nc1ccccc1Cl)c1cccc(NC(=O)C2CCCC2)c1

Row | SMILES | solubility kinetic [µg/mL]
45 | COc1ccc(NC2=NC(C)(C)CS2)cc1 | 31.4 (≈ 133 µM)
46 | Cl.OC(CN1CCOCC1)c1csc2ccccc12 (configuration not stated) | 43.6
47 | COc1ccccc1N1C(=O)CC(=O)NC1=O | > 35.1
